ChEMBL document CHEMBL1201862, “PubChem BioAssay data set” (2004)
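48-hour exposure; five concentrations; linearly interpolated endpoints. At the GI50, growth is halved.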 Activity calls are given as the source filed them. Rule as the data show it: active = GI50 up to about 1.1 µM and inactive = higher.

Experiments:
Assay in all cases: NCI-60 cell line screen, 48 h
NCI-H460 = tested on: NCI-H460
BT-549 = tested on: BT-549
MDA-MB-231 = tested on: MDA-MB-231
NCI-H23 = tested on: NCI-H23
IGROV-1 = tested on: IGROV-1
SN12C = tested on: SN12C
HT-29 = tested on: HT-29
HCC 2998 = tested on: HCC 2998
SF-268 = tested on: SF-268
HOP-92 = tested on: HOP-92
MDA-MB-435 = tested on: MDA-MB-435
A498 = tested on: A498
SR = tested on: SR
SK-MEL-2 = tested on: SK-MEL-2
SK-OV-3 = tested on: SK-OV-3
786-0 = tested on: 786-0
NCI-H226 = tested on: NCI-H226
KM12 = tested on: KM12
HL-60 = tested on: HL-60
Malme-3M = tested on: Malme-3M
MCF7 = tested on: MCF7
DLD-1 = tested on: DLD-1
CCRF-CEM = tested on: CCRF-CEM
SW-620 = tested on: SW-620
UACC-257 = tested on: UACC-257
UACC-62 = tested on: UACC-62
M14 = tested on: M14
DU-145 = tested on: DU-145
EKVX = tested on: EKVX
NCI-H522 = tested on: NCI-H522
HCT-15 = tested on: HCT-15
SK-MEL-28 = tested on: SK-MEL-28
ACHN = tested on: ACHN
OVCAR-3 = tested on: OVCAR-3
PC-3 = tested on: PC-3
RXF 393 = tested on: RXF 393
COLO 205 = tested on: COLO 205
OVCAR-4 = tested on: OVCAR-4
SNB-19 = tested on: SNB-19
U-251 = tested on: U-251
SNB-75 = tested on: SNB-75
HCT-116 = tested on: HCT-116
NCI/ADR-RES = tested on: NCI/ADR-RES
A549 = tested on: A549
CAKI-1 = tested on: CAKI-1
SF-295 = tested on: SF-295
OVCAR-5 = tested on: OVCAR-5
K562 = tested on: K562
KM-20L2 = tested on: KM-20L2
LXFL 529 = tested on: LXFL 529
DMS-114 = tested on: DMS-114
SK-MEL-5 = tested on: SK-MEL-5
SF-539 = tested on: SF-539
LOX IMVI = tested on: LOX IMVI
RPMI-8226 = tested on: RPMI-8226
T47D = tested on: T47D
MDA-N = tested on: MDA-N
OVCAR-8 = tested on: OVCAR-8
MOLT-4 = tested on: MOLT-4
UO-31 = tested on: UO-31
TK-10 = tested on: TK-10
XF498 = tested on: XF498
HOP-62 = tested on: HOP-62
DMS-273 = tested on: DMS-273

CC1=NN(C(=O)c2ccccc2O)C(=O)/C1=C/c1ccccc1O was tested, and the GI50 (NCI-H460) was 0.209 µM (active), the GI50 (BT-549) was 0.438 µM (active) and the GI50 (MDA-MB-231) was 0.381 µM (active). The GI50 (NCI-H23) was 0.404 µM (active), the GI50 (IGROV-1) was 0.0577 µM (active) and the GI50 (SN12C) was 0.579 µM (active). The GI50 (HT-29) was 8.45 µM (inactive), the GI50 (HCC 2998) was 3.21 µM (inactive) and the GI50 (SF-268) was 0.445 µM (active). For the same compound, the GI50 (HOP-92) was 1.27 µM (inactive), the GI50 (MDA-MB-435) was 0.0612 µM (active) and the GI50 (A498) was 0.0327 µM (active). For the same compound, the GI50 (SR) was 0.251 µM (active), the GI50 (SK-MEL-2) was 6.4 µM (inactive) and the GI50 (SK-OV-3) was 0.0815 µM (active). The GI50 (786-0) was 0.521 µM (active), the GI50 (NCI-H226) was 0.977 µM (active) and the GI50 (KM12) was 2.76 µM (inactive). The GI50 (HL-60) was 0.409 µM (active), the GI50 (Malme-3M) was 0.766 µM (active) and the GI50 (MCF7) was 2.68 µM (inactive). The GI50 (DLD-1) was 0.0807 µM (active), the GI50 (CCRF-CEM) was 0.164 µM (active) and the GI50 (SW-620) was 1.54 µM (inactive). For the same compound, the GI50 (UACC-257) was 2.31 µM (inactive), the GI50 (UACC-62) was 0.057 µM (active) and the GI50 (M14) was 1.55 µM (inactive). For the same compound, the GI50 (DU-145) was 0.132 µM (active), the GI50 (EKVX) was 1.78 µM (inactive) and the GI50 (NCI-H522) was 0.497 µM (active). For the same compound, the GI50 (HCT-15) was 0.292 µM, the GI50 (SK-MEL-28) was 18.5 µM (inactive) and the GI50 (ACHN) was 0.0695 µM (active). For the same compound, the GI50 (OVCAR-3) was 0.215 µM (active), the GI50 (PC-3) was 1.35 µM (inactive) and the GI50 (RXF 393) was 0.0986 µM (active). The GI50 (COLO 205) was 20.7 µM (inactive), the GI50 (OVCAR-4) was 1.08 µM (active) and the GI50 (SNB-19) was 0.124 µM (active). The GI50 (U-251) was 0.114 µM (active), the GI50 (SNB-75) was 0.0968 µM (active) and the GI50 (HCT-116) was 0.107 µM (active). The GI50 (NCI/ADR-RES) was 0.558 µM (active), the GI50 (A549) was 0.157 µM (active) and the GI50 (CAKI-1) was 1.53 µM (inactive). The GI50 (SF-295) was 0.0736 µM (active), the GI50 (OVCAR-5) was 3.74 µM (inactive) and the GI50 (K562) was 0.0914 µM (active). For the same compound, the GI50 (KM-20L2) was 11.5 µM (inactive), the GI50 (LXFL 529) was 0.0573 µM (active) and the GI50 (DMS-114) was 0.0853 µM (active). The GI50 (SK-MEL-5) was 1.06 µM (active), the GI50 (SF-539) was 0.132 µM (active) and the GI50 (LOX IMVI) was 0.568 µM (active). For the same compound, the GI50 (RPMI-8226) was 0.931 µM (active), the GI50 (T47D) was 0.225 µM (active) and the GI50 (MDA-N) was 0.114 µM (active). The GI50 (OVCAR-8) was 0.557 µM (active), the GI50 (MOLT-4) was 0.295 µM (active) and the GI50 (UO-31) was 0.0634 µM (active). The GI50 (TK-10) was 15.2 µM (inactive), the GI50 (XF498) was 0.365 µM (active) and the GI50 (HOP-62) was 0.236 µM (active).
For COC1(OC)CCC2(C)OC(c3ccccc3)C1O2 (stereo not given), the GI50 (NCI-H460) was > 100 µM (inactive), the GI50 (NCI-H23) was > 100 µM (inactive) and the GI50 (IGROV-1) was > 100 µM (inactive). The GI50 (SN12C) was > 100 µM (inactive), the GI50 (HT-29) was > 100 µM (inactive) and the GI50 (HCC 2998) was > 100 µM (inactive). For the same compound, the GI50 (SF-268) was > 100 µM (inactive), the GI50 (SR) was > 100 µM (inactive) and the GI50 (SK-MEL-2) was > 100 µM (inactive). For the same compound, the GI50 (SK-OV-3) was > 100 µM (inactive), the GI50 (786-0) was > 100 µM (inactive) and the GI50 (NCI-H226) was > 100 µM (inactive). The GI50 (KM12) was > 100 µM (inactive), the GI50 (HL-60) was > 100 µM (inactive) and the GI50 (Malme-3M) was > 100 µM (inactive). The GI50 (DLD-1) was > 100 µM (inactive), the GI50 (CCRF-CEM) was > 100 µM (inactive) and the GI50 (SW-620) was > 100 µM (inactive). For the same compound, the GI50 (UACC-257) was > 100 µM (inactive), the GI50 (UACC-62) was > 100 µM (inactive) and the GI50 (M14) was > 100 µM (inactive). The GI50 (EKVX) was > 100 µM (inactive), the GI50 (NCI-H522) was > 100 µM (inactive) and the GI50 (HCT-15) was greater than 100 µM. For the same compound, the GI50 (SK-MEL-28) was > 100 µM (inactive), the GI50 (ACHN) was > 100 µM (inactive) and the GI50 (OVCAR-3) was > 100 µM (inactive). The GI50 (RXF 393) was > 100 µM (inactive), the GI50 (COLO 205) was > 100 µM (inactive) and the GI50 (OVCAR-4) was > 100 µM (inactive). The GI50 (SNB-19) was > 100 µM (inactive), the GI50 (U-251) was > 100 µM (inactive) and the GI50 (SNB-75) was > 100 µM (inactive). For the same compound, the GI50 (HCT-116) was > 100 µM (inactive), the GI50 (A549) was > 100 µM (inactive) and the GI50 (CAKI-1) was > 100 µM (inactive). The GI50 (SF-295) was > 100 µM (inactive), the GI50 (OVCAR-5) was > 100 µM (inactive) and the GI50 (K562) was > 100 µM (inactive). For the same compound, the GI50 (KM-20L2) was > 100 µM (inactive), the GI50 (LXFL 529) was > 100 µM (inactive) and the GI50 (DMS-114) was > 100 µM (inactive). For the same compound, the GI50 (SF-539) was > 100 µM (inactive), the GI50 (LOX IMVI) was > 100 µM (inactive) and the GI50 (RPMI-8226) was > 100 µM (inactive). For the same compound, the GI50 (OVCAR-8) was > 100 µM (inactive), the GI50 (MOLT-4) was > 100 µM (inactive) and the GI50 (DMS-273) was > 100 µM (inactive). For the same compound, the GI50 (UO-31) was > 100 µM (inactive), the GI50 (TK-10) was > 100 µM (inactive) and the GI50 (XF498) was > 100 µM (inactive). For the same compound, the GI50 (HOP-62) was > 100 µM (inactive).
